Reference: PubChem BioAssay (NCI)
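Step 1: Grow cells in 96-well plates. Step 2: Expose to compound for 48 hours at 5 concentrations. Step 3: Interpolate endpoints linearly; if unreached, use highest concentration. TGI: total growth inhibition.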

Tests used:
Test in all cases: NCI tumour cell line growth inhibition, 48 h
SNB-78 CNS = tested on: SNB-78 CNS
XF 498 CNS = tested on: XF 498 CNS
786-0 renal = tested on: 786-0 renal
KM12 colon = tested on: KM12 colon
CCRF-CEM leukemia = tested on: CCRF-CEM leukemia
K-562 leukemia = tested on: K-562 leukemia
UACC-62 melanoma = tested on: UACC-62 melanoma
OVCAR-5 ovarian = tested on: OVCAR-5 ovarian
ACHN renal = tested on: ACHN renal
MOLT-4 leukemia = tested on: MOLT-4 leukemia
RXF-631 renal = tested on: RXF-631 renal
NCI-H522 lung = tested on: NCI-H522 lung
DMS 114 small cell lung = tested on: DMS 114 small cell lung
NCI-H226 lung = tested on: NCI-H226 lung
HOP-62 NSCLC = tested on: HOP-62 NSCLC
HOP-18 NSCLC = tested on: HOP-18 NSCLC
EKVX NSCLC = tested on: EKVX NSCLC
KM20L2 colon = tested on: KM20L2 colon
SNB-75 CNS = tested on: SNB-75 CNS
M19-MEL melanoma = tested on: M19-MEL melanoma
SK-OV-3 ovarian = tested on: SK-OV-3 ovarian
DMS 273 small cell lung = tested on: DMS 273 small cell lung
LXFL 529 NSCLC = tested on: LXFL 529 NSCLC
UO-31 renal = tested on: UO-31 renal
SNB-19 CNS = tested on: SNB-19 CNS
UACC-257 melanoma = tested on: UACC-257 melanoma
NCI-H23 lung = tested on: NCI-H23 lung
M14 melanoma = tested on: M14 melanoma
OVCAR-3 ovarian = tested on: OVCAR-3 ovarian
CAKI-1 renal = tested on: CAKI-1 renal
SN12C renal = tested on: SN12C renal
SK-MEL-2 melanoma = tested on: SK-MEL-2 melanoma
A549 NSCLC = tested on: A549 NSCLC
DLD-1 colon = tested on: DLD-1 colon
HT29 colon = tested on: HT29 colon
U251 CNS = tested on: U251 CNS
A498 renal = tested on: A498 renal
MALME-3M melanoma = tested on: MALME-3M melanoma
SK-MEL-28 melanoma = tested on: SK-MEL-28 melanoma
HOP-92 NSCLC = tested on: HOP-92 NSCLC
COLO 205 colon = tested on: COLO 205 colon
HCC-2998 colon = tested on: HCC-2998 colon
SK-MEL-5 melanoma = tested on: SK-MEL-5 melanoma
OVCAR-4 ovarian = tested on: OVCAR-4 ovarian
HL-60(TB) leukemia = tested on: HL-60(TB) leukemia
SF-539 CNS = tested on: SF-539 CNS
OVCAR-8 ovarian = tested on: OVCAR-8 ovarian
TK-10 renal = tested on: TK-10 renal
LOX IMVI melanoma = tested on: LOX IMVI melanoma
IGROV1 ovarian = tested on: IGROV1 ovarian
SF-295 CNS = tested on: SF-295 CNS
RPMI-8226 leukemia = tested on: RPMI-8226 leukemia
HCT-15 colon = tested on: HCT-15 colon
SF-268 CNS = tested on: SF-268 CNS

Molecule Cc1ccc(Nc2nc3c(s2)C(=O)c2ccccc2C3=O)cc1 has a TGI (SNB-78 CNS) of 5.82 µM, a TGI (XF 498 CNS) of 3.76 µM and a TGI (786-0 renal) of 3.37 µM. The TGI (KM12 colon) was 3.44 µM, the TGI (CCRF-CEM leukemia) was 5.04 µM and the TGI (K-562 leukemia) was 7.19 µM. For the same molecule, the TGI (UACC-62 melanoma) was 3.92 µM, the TGI (OVCAR-5 ovarian) was 3.5 µM and the TGI (ACHN renal) was 3.21 µM. For the same molecule, the TGI (MOLT-4 leukemia) was 3.83 µM, the TGI (RXF-631 renal) was 3.8 µM and the TGI (NCI-H522 lung) was 3.25 µM. For the same molecule, the TGI (DMS 114 small cell lung) was 3.28 µM, the TGI (NCI-H226 lung) was 33.9 µM and the TGI (HOP-62 NSCLC) was 20 µM. For the same molecule, the TGI (HOP-18 NSCLC) was 3.19 µM, the TGI (EKVX NSCLC) was 16 µM and the TGI (KM20L2 colon) was 38.9 µM. It also gave a TGI (SNB-75 CNS) of 5.03 µM, a TGI (M19-MEL melanoma) of 1.05 µM and a TGI (SK-OV-3 ovarian) of 40.1 µM. The TGI (DMS 273 small cell lung) was 3.75 µM, the TGI (LXFL 529 NSCLC) was 3 µM and the TGI (UO-31 renal) was 4.12 µM. The TGI (SNB-19 CNS) was 3.33 µM, the TGI (UACC-257 melanoma) was 3.2 µM and the TGI (NCI-H23 lung) was 4.33 µM. It also gave a TGI (M14 melanoma) of 3.25 µM, a TGI (OVCAR-3 ovarian) of 4.87 µM and a TGI (CAKI-1 renal) of 3 µM. The TGI (SN12C renal) was 3.4 µM, the TGI (SK-MEL-2 melanoma) was 3.94 µM and the TGI (A549 NSCLC) was 4.86 µM. For the same molecule, the TGI (DLD-1 colon) was 4.26 µM, the TGI (HT29 colon) was 11.2 µM and the TGI (U251 CNS) was 3.42 µM. The TGI (A498 renal) was 30.9 µM, the TGI (MALME-3M melanoma) was 3.39 µM and the TGI (SK-MEL-28 melanoma) was 2.99 µM. The TGI (HOP-92 NSCLC) was 14.3 µM, the TGI (COLO 205 colon) was 26.9 µM and the TGI (HCC-2998 colon) was 3.58 µM. It also gave a TGI (SK-MEL-5 melanoma) of 3.43 µM, a TGI (OVCAR-4 ovarian) of 2.89 µM and a TGI (HL-60(TB) leukemia) of 0.602 µM. For the same molecule, the TGI (SF-539 CNS) was 17.7 µM, the TGI (OVCAR-8 ovarian) was 5.07 µM and the TGI (TK-10 renal) was 18.9 µM. It also gave a TGI (LOX IMVI melanoma) of 3.11 µM, a TGI (IGROV1 ovarian) of 3.73 µM and a TGI (SF-295 CNS) of 2.99 µM. The TGI (RPMI-8226 leukemia) was 3.74 µM, the TGI (HCT-15 colon) was 4.29 µM and the TGI (SF-268 CNS) was 5.66 µM.
